The term EC50 denotes the midpoint of the concentration-response curve.

Several values for one entry are separate records, joined by “and”; a condition that tells them apart may be missing. Equal entries are not always repeated.

The source of these data is article PMC11257039, “VCP activator reverses nuclear proteostasis defects and enhances TDP-43 aggregate clearance in multisystem proteinopathy models” (The Journal of Clinical Investigation, 2024).

The target of this experiment is T1, recombinant WT VCP (Mus musculus, UniProt Q01853).
T1 construct: in the full-length recombinant VCP; His (N); made in house; host or cells: Escherichia coli BL21-CodonPlus (DE3)-RIL
The experiment in a line: Kinase-Glo ATPase assay, recombinant WT VCP. In kind it is biochemical. The settings on record: for ATP consumed: WT VCP no UN. In outline: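 Mouse VCP (50 nM), alone or with 50 nM UFD1/NPLOC4, was incubated 1 h at 25 °C with 62.5 μM ATP and a range of compound concentrations in HEPES pH 7.5, 100 mM NaCl, 10 mM MgCl2, 2% DMSO. Remaining ATP was read by Kinase-Glo luminescence. Dose data were fit to a 3-parameter curve; ATP-varied data were fit to Michaelis-Menten.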

T1 sequence (Q01853 whole entry): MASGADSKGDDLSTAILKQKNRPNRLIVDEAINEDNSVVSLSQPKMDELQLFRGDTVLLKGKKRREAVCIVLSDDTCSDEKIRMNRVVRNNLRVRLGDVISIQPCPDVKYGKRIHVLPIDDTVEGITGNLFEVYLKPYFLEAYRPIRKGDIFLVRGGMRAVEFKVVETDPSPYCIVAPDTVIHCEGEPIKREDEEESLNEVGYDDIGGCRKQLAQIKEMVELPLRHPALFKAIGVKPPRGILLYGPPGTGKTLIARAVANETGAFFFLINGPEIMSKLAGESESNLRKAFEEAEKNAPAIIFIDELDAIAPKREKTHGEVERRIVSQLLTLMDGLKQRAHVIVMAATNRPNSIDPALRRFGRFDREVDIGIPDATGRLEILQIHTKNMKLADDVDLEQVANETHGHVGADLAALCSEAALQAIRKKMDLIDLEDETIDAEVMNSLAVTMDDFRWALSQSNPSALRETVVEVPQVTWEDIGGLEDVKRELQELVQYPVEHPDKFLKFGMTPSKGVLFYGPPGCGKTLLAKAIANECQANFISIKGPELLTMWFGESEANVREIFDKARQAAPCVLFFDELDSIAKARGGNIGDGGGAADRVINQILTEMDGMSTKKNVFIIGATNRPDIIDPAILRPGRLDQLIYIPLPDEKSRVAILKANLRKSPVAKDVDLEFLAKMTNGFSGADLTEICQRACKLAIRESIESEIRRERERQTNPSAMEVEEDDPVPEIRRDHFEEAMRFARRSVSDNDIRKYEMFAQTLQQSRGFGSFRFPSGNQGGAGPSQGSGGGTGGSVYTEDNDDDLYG

For `COCCNC(=O)NC(=O)COC(=O)c1cc([N+](=O)[O-])ccc1Sc1nc(C)cs1` [UP109], the EC50 (EC50 (μM) (95% CI), WT VCP without UN, 50 nM VCP, 62.5 μM ATP, 2% DMSO) was determined as 24.7 µM. Also, the “ATP consumed” value was 0.864 nmol and 1.057 nmol and 1.000 nmol (1.56 μM compound); 1.129 nmol and 1.166 nmol and 1.237 nmol (3.13 μM compound); 1.129 nmol and 1.374 nmol and 1.469 nmol (6.25 μM compound); 1.453 nmol and 1.583 nmol and 1.518 nmol (12.5 μM compound); 1.644 nmol and 1.860 nmol and 1.582 nmol (25 μM compound); 1.793 nmol and 1.914 nmol and 2.036 nmol (50 μM compound). In addition, the “ATP consumed” value by setting is: (100 μM compound) 1.926 nmol and 2.030 nmol and 2.160 nmol; (200 μM compound) 2.051 nmol and 2.217 nmol and 2.241 nmol. Further, the “recombinant WT VCP ATPase activity” value (in vitro validation of 106 screen hits) is “significantly increased”. In addition, the “increase of VCP activity” value (maximum, WT VCP without UN) stood at 97%.
